Laboratory results from ChEMBL document CHEMBL1135958, “Hepatobiliary excretion of dipyrrinone sulfonates in Mrp2-deficient (TR(-)) rats” (Bioorg Med Chem Lett, 2002).

Experiment: Pharmacokinetic parameter (Tmax) was estimated
Type: ADME, organism-based
Conditions: rat, in vivo

Tmax: 6 min
Structure (SMILES): CCC1=C(C)C(=O)N/C1=C\c1[nH]c(C)c(CCS(=O)(=O)O)c1C
